# Where two headings read alike, the source gives them in different places.
# Assays:
# [1] = test system: A2780 cells (ovarian cancer cells); test: Cell viability of A2780 cells (Cell-titer Glo); type: cell-based; conditions: Homo sapiens
# Procedure, shortened: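 A2780 ovarian cancer cells seeded at 3000 viable cells/well in RPMI-1640 with 10% FBS, dosed the next day and grown 3 days. Viability measured by Cell-titer Glo luminescence.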
# [2] = test system: A2780-SP cells (ovarian cancer stem cells); test: Sphere cell viability of A2780-SP cells (Cell-titer Glo); type: cell-based
# Procedure, shortened: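 A2780-SP ovarian cancer stem cells grown as spheres in ultra-low-attachment wells (1,500 cells/well) in neurobasal stem-cell medium with bFGF, EGF, B27. Compound added the day after plating, re-dosed on day 4, 8-day culture total; viability by CellTiter-Glo luminescence.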
# [3] = test system: MDA-MB 231 triple negative breast cancer cell line; test: MDA-MB 231 protein expression inhibition (Western blotting, cycline D1 vs Vinculin); type: cell-based; conditions: Homo sapiens, compound 10 μM, 72 hours, cycline D1 Western blot, read-out: MBA-MB-231 (amount of the protein compared to the DMSO-treated control group)
# Experimental: In order to confirm the ability of the compound represented by formula 1 according to the present invention to inhibit the protein expression of MDA-MB 231 triple negative breast cancer cell line, the following experiment was performed, and the results are shown in Table 3 below.
# MDA-MB-231 cells were cultured in a 5% CO2 incubator at 37° C. using RPMI medium supplemented with 10% FBS and 1% penicillin/streptomycin.
# The cells were washed with PBS once a day, and then replaced with a new medium. The cells grown at the density of at least 90% 1 day before the experiment were detached using trypsin/EDTA, and then plated at the density of 100,000 per well in a 6-well plate.
# On the next day of culture, the compound prepared in each example was treated at a concentration of 10 μM, and DMSO was treated at a concentration of 0.1% of the total as the control, followed by incubation for 72 hours. After 72 hours, the cells were washed twice with PBS, collected by scraping, and centrifuged at 13,000 rpm for 3 minutes to remove all the supernatant and only cells were taken.
# RIPA buffer (containing 1× protease inhibitor and phosphatase inhibitor) was added to the prepared cells (80 μl/well), and the plate was shaken once every 5 minutes to disrupt the cells for a total of 15 minutes. The disrupted cells were centrifuged at 13,000 rpm for 15 minutes to collect only the supernatant protein. The obtained protein was quantified using a BCA protein quantification kit (Pierece, MA, USA), and a total of 10 μg of the protein was used for Western blotting.
# The protein sample was isolated by 10% SDS-PAGE, and transferred to a PVDF membrane. Anti-human cycline D1 antibody (Cell signal) and anti-Vinculin antibody were bound to the protein sample, and the expression of the protein was measured by using an ECL reagent and LAS4000 equipment. The measurement results were quantified and generalized using ImageJ. The results are shown in Table 3 below by dividing the grades A to D according to the amount of the protein compared to the DMSO-treated control group.
# [4] = target: T1, Pin1 (Homo sapiens, UniProt Q13526); test: Evaluation of Pin1 enzyme inhibitory activity (Sensolyte Green Pin1 assay kit); type: biochemical
# T1 construct: purchased Anaspec
# T1 sequence (Q13526 whole entry): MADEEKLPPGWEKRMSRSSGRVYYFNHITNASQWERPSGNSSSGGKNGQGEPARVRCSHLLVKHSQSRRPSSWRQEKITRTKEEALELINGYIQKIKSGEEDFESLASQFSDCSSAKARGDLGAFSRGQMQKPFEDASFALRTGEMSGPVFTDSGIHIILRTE
# Procedure, shortened: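 Pin1 activity was measured with a fluorogenic kit assay (Sensolyte Green) using substrate prepared at 1 μM and protein at 50 μg/ml, both pre-mix concentrations. Compound working solutions were 100, 10, 1 or 0.1 μM, and reactions ran 2 h at room temperature in the dark, read at 490/520 nm. Inhibition was graded A–D by concentration.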
# [5] = 72 h, cell viability, culture for 3 days, read-out: A2780
# [6] = 192 h, sphere cell viability, culture for 8 days, read-out: A2780-SP
# [7] = Table 5, read-out: the concentration (second list of b710, cell line not named; matches A2780-SP column)
# [8] = Table 2, read-out: concentration at which Pin1 inhibitory activity was exhibited
# [9] = concentration at which the Pin1 enzyme activity is inhibited, 2 hours at room temperature, fluorescence 490 nm/520 nm, read-out: Pin 1 inhibition
# [10] = A2780, Table 5, read-out: A2780 cell concentration
SMILES,"IC50 [1, 5]","IC50 [2, 6]","IC50 [2, 7]","IC50 [4, 8]","IC50 [4, 9]","IC50 [1, 10]",activity at 10 µM [3]
"O=S(=O)(NCCCc1c[nH]c2ccc(Cl)cc12)c1ccc(OCCCN2CCNCC2)c(F)c1 [Example 104, N-(3-(5-chloro-1H-indol-3-yl)propyl)-3-fluoro-4-(3-(piperazin-1-yl)propoxy)benzenesulfonamide]",> 10 µM,< 1000 nM,< 1000 nM,< 1000 nM,< 1000 nM,–,70 to 100%
"CN1CCN(CCCOc2ccc(S(=O)(=O)NCCCc3c[nH]c4ccc(Cl)cc34)cc2F)CC1 [Example 103, N-(3-(5-chloro-1H-indole-3-yl)propyl)-3-fluoro-4-(3-(4-methylpiperazine-1-yl)propoxy)benzenesulfonamide]",> 10 µM,< 1000 nM,< 1000 nM,< 1000 nM,< 1000 nM,–,35 to 50%
"CN1CCN(CCCOc2ccc(S(=O)(=O)NCCCc3c[nH]c4ccc(F)cc34)cc2)CC1 [Example 56, N-(3-(5-fluoro-1H-indol-3-yl)propyl)-4-(3-(4-methylpiperazin-1-yl)propoxy)benzenesulfonamide]",1 to 10 µM,< 1000 nM,< 1000 nM,< 1000 nM,< 1000 nM,< 10 µM,35 to 50%
"CN1CCC(CCCOc2ccc(S(=O)(=O)NCCCc3c[nH]c4ccc(Cl)cc34)cc2)CC1 [Example 92, N-(3-(5-chloro-1H-indole-3-yl)propyl)-4-(3-(1-methylpiperidine-4-yl)propoxy)benzenesulfonamide]",> 10 µM,< 1000 nM,< 1000 nM,< 1000 nM,< 1000 nM,–,0 to 35%
"O=S(=O)(NCCCc1c[nH]c2ccc(Cl)cc12)c1ccc(Oc2cccc(N3CCNCC3)c2)cc1 [Example 121, N-(3-(5-chloro-1H-indol-3-yl)propyl)-4-(3-(piperazin-1-yl)phenoxy)benzenesulfonamide]",1 to 10 µM,< 1000 nM,< 1000 nM,< 1000 nM,< 1000 nM,< 10 µM,0 to 35%
"CN1CCC(CCCOc2ccc(S(=O)(=O)NCCCc3c[nH]c4ccc(F)cc34)cc2)CC1 [Example 59, N-(3-(5-fluoro-1H-indol-3-yl)propyl)-4-(3-(1-methylpiperidin-4-yl)propoxy)benzenesulfonamide]",1 to 10 µM,< 1000 nM,< 1000 nM,–,1000 to 10000 nM,< 10 µM,35 to 50%
"CN1CCN(c2cccc(Nc3ccc(S(=O)(=O)NCCCc4c[nH]c5ccc(Cl)cc45)cc3)c2)CC1 [Example 123, N-(3-(5-chloro-1H-indole-3-yl)propyl)-4-((3-(4-methylpiperazine-1-yl)phenyl)amino)benzenesulfonamide]",1 to 10 µM,1000 to 10000 nM,–,< 1000 nM,< 1000 nM,< 10 µM,70 to 100%
"O=S(=O)(NCCCc1c[nH]c2ccc(Cl)cc12)c1ccc(OCCCN2CCC(O)CC2)c(F)c1 [Example 105, N-(3-(5-chloro-1H-indol-3-yl)propyl)-3-fluoro-4-(3-(4-hydroxypiperidin-1-yl)propoxy)benzenesulfonamide]",> 10 µM,< 1000 nM,< 1000 nM,< 1000 nM,< 1000 nM,–,70 to 100%
"O=S(=O)(NCCCc1c[nH]c2ccc(Cl)cc12)c1ccc(OCCCC2CCNCC2)cc1 [Example 93, N-(3-(5-chloro-1H-indole-3-yl)propyl)-4-(3-(piperidine-4-yl)propoxy)benzenesulfonamide]",1 to 10 µM,< 1000 nM,< 1000 nM,< 1000 nM,< 1000 nM,< 10 µM,0 to 35%
"Cc1[nH]c2ccccc2c1CCCNS(=O)(=O)c1ccc(OCCCN2CCN(C)CC2)cc1 [Example 58, N-(3-(2-methyl-1H-indol-3-yl)propyl)-4-(3-(4-methylpiperazin-1-yl)propoxy)benzenesulfonamide]",–,–,–,–,1000 to 10000 nM,–,70 to 100%

# Continued, in another order:
"IC50 [1, 5]","IC50 [2, 6]","IC50 [2, 7]","IC50 [4, 8]","IC50 [4, 9]","IC50 [1, 10]",SMILES,activity at 10 µM [3]
> 10 µM,< 1000 nM,< 1000 nM,< 1000 nM,< 1000 nM,–,"O=S(=O)(NCCCc1c[nH]c2ccc(Cl)cc12)c1ccc(NCCCC2CCNCC2)cc1 [Example 88, N-(3-(5-chloro-1H-indole-3-yl)propyl)-4-((3-(piperidine-4-yl)propyl)amino)benzenesulfonamide]",50 to 70%
> 10 µM,1000 to 10000 nM,–,< 1000 nM,< 1000 nM,–,"CNC1CN(CCCOc2ccc(S(=O)(=O)NCCCc3c[nH]c4ccc(Cl)cc34)cc2)C1 [Example 77, N-(3-(5-chloro-1H-indole-3-yl)propyl)-4-(3-(3-(methylamino)azetidine-1-yl)propoxy)benzenesulfonamide]",0 to 35%
1 to 10 µM,< 1000 nM,< 1000 nM,< 1000 nM,< 1000 nM,< 10 µM,"O=S(=O)(NCCCc1c[nH]c2ccc(Cl)cc12)c1ccc(OCCCN2CCCNCC2)c(F)c1 [Example 106, 4-(3-(1,4-diazepan-1-yl)propoxy)-N-(3-(5-chloro-1H-indol-3-yl)propyl)-3-fluorobenzenesulfonamide]",50 to 70%
> 10 µM,< 1000 nM,< 1000 nM,< 1000 nM,< 1000 nM,–,"O=S(=O)(NCCCc1c[nH]c2ccc(Cl)cc12)c1ccc(CCCCN2CCCCC2)cc1 [Example 90, N-(3-(5-chloro-1H-indole-3-yl)propyl)-4-(4-(piperidine-1-yl)butyl)benzenesulfonamide]",35 to 50%
1 to 10 µM,< 1000 nM,< 1000 nM,< 1000 nM,< 1000 nM,< 10 µM,"CN1CCN(CCCOc2ccc(S(=O)(=O)NCCCc3c[nH]c4ccc(Cl)cc34)cc2)CC1 [Example 66, N-(3-(5-chloro-1H-indol-3-yl)propyl)-4-(3-(4-methylpiperazin-1-yl)propoxy)benzenesulfonamide]",0 to 35%
1 to 10 µM,< 1000 nM,< 1000 nM,< 1000 nM,< 1000 nM,< 10 µM,"O=S(=O)(NCCCc1c[nH]c2ccc(F)cc12)c1ccc(OCCCN2CCNCC2)cc1 [Example 61, N-(3-(5-fluoro-1H-indol-3-yl)propyl)-4-(3-(piperazin-1-yl)propoxy)benzenesulfonamide]",0 to 35%
